These are literature values, as cited in article PMC7518156 (PeerJ, 2020).

Where two headings read alike, the source gives them in different places.

The conditions of this series: ref Scheffler et al., 2011, cited from earlier work; for half-life (t1/2): Lu et al., 2006.
Setting [1] is: oral administration, cancer patients.
The mark [2] stands for this setting: oral administration, healthy subjects.

Consider `C#Cc1cccc(Nc2ncnc3cc(OCCOC)c(OCCOC)cc23)c1` [ERL, Erlotinib], for which the “half-life (t1/2)” value (cancer patients) is “up to 40.9 h”. The “half-life (t1/2)” value (healthy patients) is given as “about 24.4 h”. Under setting [1], the F is reported as 76% and the time of peak concentration (Tmax) (commonly the time at which the peak concentration occurs) is recorded as 3 h. In addition, under setting [2], the “mean bioavailability (F)” value is recorded as 59% and the “time to reach maximum concentration (tmax)” value is 1.4 h.
On to `COc1cc2ncnc(Nc3ccc(F)c(Cl)c3)c2cc1OCCCN1CCOCC1` [GEF, Gefitinib], for which the “half-life (t1/2)” value reads like this: (cancer patients) roughly 48 h; (healthy patients) “about 41 h”. The Tmax entry under setting [1] is on record as “about 7 h”. Further, the “time to reach maximum concentration (tmax)” value under setting [2] is on record as 3 h.
